Results: patent US20120115845A1, “THERAPEUTIC AGENTS” (priority 2007, published 2012)

Legend:
[1] = target: T1, human GHS receptor (Homo sapiens, UniProt Q92847); test: Ghrelin IP1 agonist assay (IP1 HTRF); format: cell-based; set-up: expressed in transfected cells; host or cells: HEK293s; settings: for Emax: 2 h, agonist effect as % maximal effect of GHRP-6 (5 μM), read-out: h IP1 ag %; for EC50: HEK293s cells stably expressing human GHS receptor, 2 hours at 37° C., read-out: h IP1 ag EC50
In short: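 Cells: HEK293s stably expressing human GHS receptor, in stimulation buffer containing 0.02% fatty acid free BSA.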

[2] = target: T1, human GHS receptor; test: h bind IC50 (binding assay, Table 1); settings: human receptor; Table 1

T1 sequence (Q92847 whole entry): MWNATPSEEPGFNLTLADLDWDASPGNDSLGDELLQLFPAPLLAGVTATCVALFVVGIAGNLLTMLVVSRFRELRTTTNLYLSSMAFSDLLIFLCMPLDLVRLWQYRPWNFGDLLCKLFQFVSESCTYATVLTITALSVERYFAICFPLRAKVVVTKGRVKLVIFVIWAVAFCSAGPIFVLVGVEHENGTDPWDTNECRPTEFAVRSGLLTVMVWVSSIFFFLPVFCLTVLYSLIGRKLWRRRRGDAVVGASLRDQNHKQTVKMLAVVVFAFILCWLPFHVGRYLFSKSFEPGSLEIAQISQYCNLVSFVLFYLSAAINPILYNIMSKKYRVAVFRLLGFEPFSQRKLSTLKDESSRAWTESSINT

SMILES	Emax [1]	EC50 [1]	IC50 [2]
CS(=O)(=O)c1ccc2nc(NC(=O)NC(=O)c3ccccc3I)sc2c1 [Example 118, 2-Iodo-N-[(6-methylsulfonylbenzothiazol-2-yl)carbamoyl]benzamide]	9.59%	114 nM	464 nM
Cc1ccc(C)n1-c1ccc(C(=O)NC(=O)Nc2nc3ccc(S(C)(=O)=O)cc3s2)c(Cl)c1 [Example 119, 2-Chloro-4-(2,5-dimethylpyrrol-1-yl)-N-[(6-methylsulfonylbenzothiazol-2-yl)carbamoyl]benzamide]	9.26%	15700 nM	24.3 nM
COc1ccc(C(=O)NC(=O)Nc2nc3ccc(S(C)(=O)=O)cc3s2)c(-c2ccc(F)cc2)c1 [Example 123, 2-(4-Fluorophenyl)-4-methoxy-N-[(6-methylsulfonylbenzothiazol-2-yl)carbamoyl]benzamide]	31.2%	54.5 nM	120 nM
COc1ccc(-c2ccccc2C(=O)NC(=O)Nc2nc3ccc(S(C)(=O)=O)cc3s2)cc1 [Example 124, 2-(4-Methoxyphenyl)-N-[(6-methylsulfonylbenzothiazol-2-yl)carbamoyl]benzamide]	54.5%	524 nM	135 nM
CS(=O)(=O)c1ccc2nc(NC(=O)NC(=O)c3ccccc3Oc3ccccc3)sc2c1 [Example 127, N-[(6-Methylsulfonylbenzothiazol-2-yl)carbamoyl]-2-phenoxy-benzamide]	36.6%	320 nM	56.1 nM
Cc1ccccc1C(=O)NC(=O)Nc1nc2ccc(S(C)(=O)=O)cc2s1 [Example 128, 2-Methyl-N-[(6-methylsulfonylbenzothiazol-2-yl)carbamoyl]benzamide]	17.3%	219 nM	100 nM
CCSc1ccccc1C(=O)NC(=O)Nc1nc2ccc(S(C)(=O)=O)cc2s1 [Example 130, 2-Ethylsulfanyl-N-[(6-methylsulfonylbenzothiazol-2-yl)carbamoyl]benzamide]	31.1%	668 nM	288 nM
CS(=O)(=O)c1ccc2nc(NC(=O)NC(=O)c3ccccc3COc3ccccc3)sc2c1 [Example 131, N-[(6-Methylsulfonylbenzothiazol-2-yl)carbamoyl]-2-(phenoxymethyl)benzamide]	17.5%	191 nM	229 nM
CSc1ccccc1C(=O)NC(=O)Nc1nc2ccc(S(C)(=O)=O)cc2s1 [Example 132, 2-Methylsulfanyl-N-[(6-methylsulfonylbenzothiazol-2-yl)carbamoyl]benzamide]	15.5%	3680 nM	653 nM
CS(=O)(=O)c1ccc2nc(NC(=O)NC(=O)c3ccccc3Sc3ccccc3)sc2c1 [Example 133, N-[(6-Methylsulfonylbenzothiazol-2-yl)carbamoyl]-2-phenylsulfanyl-benzamide]	41.7%	11000 nM	21.5 nM
CS(=O)(=O)c1ccc2nc(NC(=O)NC(=O)c3ccccc3-n3cccc3)sc2c1 [Example 134, N-[(6-Methylsulfonylbenzothiazol-2-yl)carbamoyl]-2-pyrrol-1-yl-benzamide]	63.9%	13.3 nM	218 nM
CC(C)c1ccccc1C(=O)NC(=O)Nc1nc2ccc(S(C)(=O)=O)cc2s1 [Example 136, N-[(6-Methylsulfonylbenzothiazol-2-yl)carbamoyl]-2-propan-2-yl-benzamide]	21.5%	217 nM	197 nM
CS(=O)(=O)c1ccc2nc(NC(=O)NC(=O)c3ccccc3OS(=O)(=O)C(F)(F)F)sc2c1 [Example 137, N-[(6-Methylsulfonylbenzothiazol-2-yl)carbamoyl]-2-(trifluoromethylsulfonyloxy)benzamide]	24.1%	2320 nM	1750 nM
CS(=O)(=O)c1ccc2nc(NC(=O)NC(=O)c3cc(S(N)(=O)=O)ccc3Cl)sc2c1 [Example 138, 2-Chloro-N-[(6-methylsulfonylbenzothiazol-2-yl)carbamoyl]-5-sulfamoyl-benzamide]	0%	≥ 25000 nM	448 nM
O=C(NC(=O)c1ccccc1Cl)Nc1nc2ccc(S(=O)(=O)C3CCCNC3)cc2s1 (stereo not drawn) [Example 139, 2-Chloro-N-[[6-(3-piperidylsulfonyl)benzothiazol-2-yl]carbamoyl]benzamide]	46.7%	27.3 nM	107 nM
CC(C)N1CCCC(S(=O)(=O)c2ccc3nc(NC(=O)NC(=O)c4ccccc4Cl)sc3c2)C1 (stereo not drawn) [Example 140, 2-Chloro-N-[[6-[(1-propan-2-yl-3-piperidyl)sulfonyl]benzothiazol-2-yl]carbamoyl]benzamide]	42.5%	62 nM	289 nM

SMILES	Emax [1]	EC50 [1]	IC50 [2]
CCc1ccccc1C(=O)NC(=O)Nc1nc2ccc(S(C)(=O)=O)cc2s1 [Example 141, 2-Ethyl-N-[(6-methylsulfonylbenzothiazol-2-yl)carbamoyl]benzamide]	22.7%	184 nM	111 nM
CCN1CCCC(S(=O)(=O)c2ccc3nc(NC(=O)NC(=O)c4ccccc4Cl)sc3c2)C1 (stereo not drawn) [Example 142, 2-Chloro-N-[[6-[(1-ethyl-3-piperidyl)sulfonyl]benzothiazol-2-yl]carbamoyl]benzamide]	24.5%	35.1 nM	851 nM
O=C(NC(=O)c1ccccc1Cl)Nc1nc2ccc(S(=O)(=O)CCCN3CCOCC3)cc2s1 [Example 146, 2-Chloro-N-[[6-(3-morpholin-4-ylpropylsulfonyl)benzothiazol-2-yl]carbamoyl]benzamide]	40.7%	30 nM	269 nM
O=C(NC(=O)c1ccccc1Cl)Nc1nc2ccc(S(=O)(=O)CCCCl)cc2s1 [Example 148, 2-Chloro-N-[[6-(3-chloropropylsulfonyl)benzothiazol-2-yl]carbamoyl]benzamide]	17.7%	52.9 nM	830 nM
O=C(NC(=O)c1ccccc1Cl)Nc1nc2ccc(S(=O)(=O)CCCN3CCS(=O)(=O)CC3)cc2s1 [Example 150, 2-Chloro-N-[[6-[3-(1,1-dioxo-1,4-thiazinan-4-yl)propylsulfonyl]benzothiazol-2-yl]carbamoyl]benzamide]	33.4%	30.9 nM	52.7 nM
O=C(NC(=O)c1ccccc1Cl)Nc1nc2ccc(S(=O)(=O)CCCNCC3CC3)cc2s1 [Example 151, 2-Chloro-N-[[6-[3-(cyclopropylmethylamino)propylsulfonyl]benzothiazol-2-yl]carbamoyl]benzamide]	74.3%	2.23 nM	10.8 nM
O=C(NC(=O)c1ccccc1Cl)Nc1nc2ccc(S(=O)(=O)CCCN3CCCCC3)cc2s1 [Example 152, 2-Chloro-N-[[6-[3-(1-piperidyl)propylsulfonyl]benzothiazol-2-yl]carbamoyl]benzamide]	46.6%	23.9 nM	19.1 nM
CCN(CC)CCCS(=O)(=O)c1ccc2nc(NC(=O)NC(=O)c3ccccc3Cl)sc2c1 [Example 153, 2-Chloro-N-[[6-(3-diethylaminopropylsulfonyl)benzothiazol-2-yl]carbamoyl]benzamide]	47%	10.9 nM	12.5 nM
CN1CCN(CCCS(=O)(=O)c2ccc3nc(NC(=O)NC(=O)c4ccccc4Cl)sc3c2)CC1 [Example 155, 2-Chloro-N-[[6-[3-(4-methylpiperazin-1-yl)propylsulfonyl]benzothiazol-2-yl]carbamoyl]benzamide]	55.2%	2.25 nM	1.2 nM
O=C(NC(=O)c1ccccc1Cl)Nc1nc2ccc(S(=O)(=O)CCCNCCO)cc2s1 [Example 159, 2-Chloro-N-[[6-[3-(2-hydroxyethylamino)propylsulfonyl]benzothiazol-2-yl]carbamoyl]benzamide]	51.6%	17.6 nM	8.5 nM
CS(=O)(=O)c1ccc2nc(NC(=O)NC(=O)c3cc(Br)ccc3Cl)sc2c1 [Example 161, 5-Bromo-2-chloro-N-[(6-methylsulfonylbenzothiazol-2-yl)carbamoyl]benzamide]	56%	6.18 nM	105 nM
CC(C)N1CCC(S(=O)(=O)c2ccc3nc(NC(=O)NC(=O)c4ccccc4Cl)sc3c2)C1 (stereo not drawn) [Example 162, 2-Chloro-N-[[6-(1-propan-2-ylpyrrolidin-3-yl)sulfonylbenzothiazol-2-yl]carbamoyl]benzamide]	48.3%	11.4 nM	296 nM
CCN1CCC[C@@H]1CS(=O)(=O)c1ccc2nc(NC(=O)NC(=O)c3ccccc3Cl)sc2c1 [Example 164, 2-Chloro-N-[[6-[[(2R)-1-ethylpyrrolidin-2-yl]methylsulfonyl]benzothiazol-2-yl]carbamoyl]benzamide]	43.9%	70.2 nM	174 nM
O=C(NC(=O)c1ccccc1Cl)Nc1nc2ccc(S(=O)(=O)C[C@H]3CCCN3)cc2s1 [Example 165, 2-Chloro-N-[[6-[[(2R)-pyrrolidin-2-yl]methylsulfonyl]benzothiazol-2-yl]carbamoyl]benzamide]	49.4%	67.1 nM	127 nM
CN1CCCC(S(=O)(=O)c2ccc3nc(NC(=O)NC(=O)c4ccccc4Cl)sc3c2)C1 (stereo not drawn) [Example 166, 2-Chloro-N-[[6-[(1-methyl-3-piperidyl)sulfonyl]benzothiazol-2-yl]carbamoyl]benzamide]	53.9%	46.4 nM	280 nM
CC(C)N1CCC[C@@H]1CS(=O)(=O)c1ccc2nc(NC(=O)NC(=O)c3ccccc3Cl)sc2c1 [Example 168, 2-Chloro-N-[[6-[[(2R)-1-propan-2-ylpyrrolidin-2-yl]methylsulfonyl]benzothiazol-2-yl]carbamoyl]benzamide]	37%	4.13 nM	20.6 nM
